Assays:
[1] = target: T1, HDAC6 (Homo sapiens, UniProt Q9UBN7); assay: HDAC6 enzyme inhibition assay (fluorimetric); assay type: biochemical; details: 1 μM compound; 3 h pre-incubation; recombinant full length HDAC6; read-out: HDAC6 % inh @ 1 μM
T1 sequence (Q9UBN7 1-1215): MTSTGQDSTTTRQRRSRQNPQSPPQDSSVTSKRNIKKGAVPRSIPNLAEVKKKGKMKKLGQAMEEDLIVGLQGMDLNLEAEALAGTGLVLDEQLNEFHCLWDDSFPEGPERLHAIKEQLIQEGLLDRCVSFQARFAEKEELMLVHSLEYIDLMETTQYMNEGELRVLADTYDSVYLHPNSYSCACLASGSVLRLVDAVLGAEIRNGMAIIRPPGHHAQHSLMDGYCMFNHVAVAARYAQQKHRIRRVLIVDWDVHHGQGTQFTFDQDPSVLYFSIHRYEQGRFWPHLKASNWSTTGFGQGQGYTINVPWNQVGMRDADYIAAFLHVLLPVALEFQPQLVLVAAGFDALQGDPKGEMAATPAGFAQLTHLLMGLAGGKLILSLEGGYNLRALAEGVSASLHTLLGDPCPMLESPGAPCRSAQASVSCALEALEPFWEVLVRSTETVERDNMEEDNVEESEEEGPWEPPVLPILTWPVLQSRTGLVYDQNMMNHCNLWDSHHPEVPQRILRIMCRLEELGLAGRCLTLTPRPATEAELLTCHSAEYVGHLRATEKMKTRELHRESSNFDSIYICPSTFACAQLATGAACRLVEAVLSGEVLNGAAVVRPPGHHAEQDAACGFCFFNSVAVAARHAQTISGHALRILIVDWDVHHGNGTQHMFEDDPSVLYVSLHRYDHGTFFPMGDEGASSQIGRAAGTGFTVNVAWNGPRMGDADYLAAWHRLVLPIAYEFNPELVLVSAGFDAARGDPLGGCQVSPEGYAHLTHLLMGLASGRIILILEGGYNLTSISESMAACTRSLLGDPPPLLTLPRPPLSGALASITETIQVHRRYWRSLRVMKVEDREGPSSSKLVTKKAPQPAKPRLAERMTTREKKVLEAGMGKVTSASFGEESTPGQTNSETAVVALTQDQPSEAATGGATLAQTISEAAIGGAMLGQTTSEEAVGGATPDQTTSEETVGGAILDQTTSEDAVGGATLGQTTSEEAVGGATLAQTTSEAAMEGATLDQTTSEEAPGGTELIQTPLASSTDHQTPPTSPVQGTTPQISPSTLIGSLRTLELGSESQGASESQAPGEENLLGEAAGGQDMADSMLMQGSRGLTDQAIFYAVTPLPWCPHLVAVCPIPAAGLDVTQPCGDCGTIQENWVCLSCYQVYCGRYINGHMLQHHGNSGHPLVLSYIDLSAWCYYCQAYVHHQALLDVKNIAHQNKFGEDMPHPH
Method: (§1) HDAC6 and HDAC2 Enzyme Inhibition Assay
(§2) A fluorimetric assay was used for testing the activity of compounds of the invention against HDAC6 and HDAC2.
(§3) The compounds were dissolved in DMSO. Serial dilutions were prepared in DMSO and then diluted 1:10 in HDAC assay buffer (Tris-buffered solution, BPS Bioscience Inc. #50031). 5 μl of the compound dilution was added to a 50 μl reaction so that the final concentration of DMSO was 1%.
(§4) The compounds were pre-incubated in duplicate at RT for 3 hours in a mixture containing HDAC assay buffer, 5 μg BSA and recombinant HDAC enzyme (see table above). The enzymatic reactions were initiated by the addition of a fluorogenic, acetylated peptide substrate based on a histone protein (BPS Bioscience Inc. #50037) to a final concentration of 10 μM. The enzymatic reaction proceeded for 30 minutes at 37° C. Then, 50 μl of 2× HDAC Developer, which contains peptidase activity and Trichostatin A (BPS Bioscience Inc. #50030) was added and the plate was incubated at RT for an additional 15 minutes. Fluorescence intensity was measured at an excitation of 360 nm and an emission of 460 nm using a Tecan Infinite M1000 microplate reader.
(§5) Trichostatin A (TSA, Selleckchem #S1045) was used as reference inhibitor.
(§6) The fluorescent intensity data were analyzed using the computer software Graphpad Prism (GraphPad Software, San Diego, CA). 100% activity was defined as the fluorescent intensity (Ft) in the absence of the compound. 0% activity was defined as the fluorescent intensity (Fb) in the absence of the enzyme. The percent activity in the presence of each compound was calculated according to the following equation: % activity=(F−Fb)/(Ft−Fb), where F=the fluorescent intensity in the presence of the compound.

[2] = target: T2, HDAC2 (Homo sapiens, UniProt Q92769); assay: HDAC2 enzyme inhibition assay (fluorimetric); assay type: biochemical; details: 1 μM compound; 3 h pre-incubation; recombinant full length HDAC2; read-out: HDAC2 % inh @ 1 μM
T2 construct: (full length with C-terminal His-tag); His (C); purchased BPS Bioscience Inc. 50002
Method: as §1, §2, §3, §4, §5, §6

[3] = target: T1, HDAC6; assay: In vitro cell-based assay: acetylation levels of Alpha-Tubulin by Western Blot in MOLP8 cells; set-up: endogenous in cells; host or cells: MOLP8; details: 18 h, acetyl-alpha-tubulin relative band intensity, ACY-1215 1 μM = 100%
Procedure, shortened: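 MOLP8 cells treated with compounds at 5 and 1 μM for 18 h at 37° C.; acetyl-alpha-tubulin measured by Western blot of RIPA extracts (7 μg protein). Bands normalized to total protein or beta-actin, expressed relative to ACY-1215 1 μM (100%), then classed.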

T2 sequence (Q92769 whole entry): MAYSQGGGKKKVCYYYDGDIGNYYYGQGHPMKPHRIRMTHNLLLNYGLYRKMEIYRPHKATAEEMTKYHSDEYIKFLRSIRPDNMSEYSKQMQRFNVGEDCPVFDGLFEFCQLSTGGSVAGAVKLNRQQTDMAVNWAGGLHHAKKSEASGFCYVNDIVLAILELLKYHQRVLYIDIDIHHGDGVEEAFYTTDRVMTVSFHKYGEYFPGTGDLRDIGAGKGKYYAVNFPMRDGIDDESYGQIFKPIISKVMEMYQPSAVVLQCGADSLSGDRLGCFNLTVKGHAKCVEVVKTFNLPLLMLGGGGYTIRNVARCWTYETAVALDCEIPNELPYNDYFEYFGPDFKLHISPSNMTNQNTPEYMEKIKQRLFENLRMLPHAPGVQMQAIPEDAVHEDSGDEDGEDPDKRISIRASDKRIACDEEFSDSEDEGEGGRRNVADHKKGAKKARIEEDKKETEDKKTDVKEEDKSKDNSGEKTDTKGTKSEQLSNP

SMILES: CCCCn1c(C(=O)N(CC)CC)cc2cc(-c3cc(-c4noc(C(F)(F)F)n4)ccn3)ncc21 [Example 1w, 1-Butyl-N,N-diethyl-5-(4-(5-(trifluoromethyl)-1,2,4-oxadiazol-3-yl)pyridin-2-yl)-1H-pyrrolo[2,3-c]pyridine-2-carboxamide]
- inhibition at 1 µM [1]: 86%
- inhibition at 1 µM [2]: 6%
- Cellular activity @1 uM [3]: + (50-150)
- Cellular activity @5 uM [3]: ++ (150-300)

SMILES: COCCn1ccc2cc(-c3cc(-c4noc(C(F)(F)F)n4)ccn3)ncc21 [Example 1x, 3-(2-(1-(2-Methoxyethyl)-1H-pyrrolo[2,3-c]pyridin-5-yl)pyridin-4-yl)-5-(trifluoromethyl)-1,2,4-oxadiazole]
- inhibition at 1 µM [1]: 95%
- inhibition at 1 µM [2]: 16%
- Cellular activity @1 uM [3]: ++ (150-300)
- Cellular activity @5 uM [3]: +++ (>300)

SMILES: O=C(CN1CCC(F)(F)CC1)Nc1ccnc(-c2cc(-c3noc(C(F)(F)F)n3)ccn2)c1 [Example 1y, 2-(4,4-Difluoropiperidin-1-yl)-N-(4′-(5-(trifluoromethyl)-1,2,4-oxadiazol-3-yl)-[2,2′-bipyridin]-4-yl)acetamide]
- inhibition at 1 µM [1]: 92%
- inhibition at 1 µM [2]: 27%
- Cellular activity @1 uM [3]: + (50-150)
- Cellular activity @5 uM [3]: ++ (150-300)

SMILES: FC1(F)CCN(CCNc2ccnc(-c3cc(-c4noc(C(F)(F)F)n4)ccn3)c2)CC1 [Example 1z, N-(2-(4,4-Difluoropiperidin-1-yl)ethyl)-4′-(5-(trifluoromethyl)-1,2,4-oxadiazol-3-yl)-[2,2′-bipyridin]-4-amine]
- inhibition at 1 µM [1]: 97%
- inhibition at 1 µM [2]: 46%
- Cellular activity @1 uM [3]: + (50-150)
- Cellular activity @5 uM [3]: ++ (150-300)

SMILES: CCCCn1cc(CN(C)C)c2cc(-c3cc(-c4noc(C(F)(F)F)n4)ccn3)ncc21 [Example 3, 1-(1-Butyl-5-(4-(5-(trifluoromethyl)-1,2,4-oxadiazol-3-yl)pyridin-2-yl)-1-pyrrolo[2,3-c]pyridin-3-yl)-N,N-dimethylmethanamine]
- inhibition at 1 µM [1]: 90%
- inhibition at 1 µM [2]: 30%
- Cellular activity @1 uM [3]: + (50-150)
- Cellular activity @5 uM [3]: +++ (>300)

SMILES: FC(F)(F)c1nc(-c2ccnc(-c3n[nH]c4cccnc34)c2)no1 [Example 4, 3-(2-(1H-Pyrazolo[4,3-b]pyridin-3-yl)pyridin-4-yl)-5-(trifluoromethyl)-1,2,4-oxadiazole]
- inhibition at 1 µM [1]: 96%
- inhibition at 1 µM [2]: 25%
- Cellular activity @1 uM [3]: ++ (150-300)
- Cellular activity @5 uM [3]: +++ (>300)

SMILES: O=C(Nc1ccnc(-c2cc(-c3noc(C(F)(F)F)n3)ccn2)c1)C1CCCNC1 (stereo not shown) [Example 5, N-(4′-(5-(trifluoromethyl)-1,2,4-oxadiazol-3-yl)-[2,2′-bipyridin]-4-yl)piperidine-3-carboxamide]
- inhibition at 1 µM [1]: 95%
- inhibition at 1 µM [2]: 29%
- Cellular activity @1 uM [3]: ++ (150-300)
- Cellular activity @5 uM [3]: ++ (150-300)

Source: patent publication US12668591B2, “1,2,4-oxadiazole derivatives as histone deacetylase 6 inhibitors” (Oryzon Genomics, S.A., priority 2017, dated 2026)
